Measurements: patent US4639466A, “3',6-diisopentenyl-2',4'-dihydroxy-5,7-dimethoxy-isoflavan and related compounds useful as anxiolytic agents and avermectin antidotes” (Merck & Co., Inc., priority 1984, dated 1987)
Like-named read-outs stand apart in the source and are kept apart here. One block for each molecule: values may come before it.

Experiments:
[1] = system: C. elegans; assay: C. elegans motility assay (effect on avermectin activity, % active worms); assay type: in vivo
Description: 1. The C. elegans motility assay:
The procedures for the C. elegans motility assay is described in S. S. Pong et al., J. NuroChem. 34, 351-358, 1980.

[2] = system: benzodiazepine receptors; conditions: known from prior art; cited from earlier work
[3] = system: benzodiazepine receptors; assay: Benzodiazepine receptor binding assay (BARIN; effect on ^3 H-diazepam binding)

SMILES: CC[C@H](C)[C@H]1O[C@]2(C=C[C@@H]1C)C[C@@H]1C[C@@H](C/C=C(\C)[C@@H](O[C@H]3C[C@H](OC)[C@@H](O[C@H]4C[C@H](OC)[C@@H](O)[C@H](C)O4)[C@H](C)O3)[C@@H](C)/C=C/C=C3\CO[C@@H]4[C@H](O)C(C)=C[C@@H](C(=O)O1)[C@]34O)O2 [avermectin]
% active worms ([1]; isoflavan 0 μg/ml, avermectin 0.156 μg/ml (avermectin alone)): 85%
% active worms ([1]; isoflavan 0 μg/ml, avermectin 0.313 μg/ml (avermectin alone)): 20%
% active worms ([1]; isoflavan 0 μg/ml, avermectin 0.625 μg/ml (avermectin alone)): 4%

SMILES: CCCCNc1c(C(=O)OCC)c(C)nc2c1cnn2CC [tracazolate]
effect on benzodiazepine binding [2]: stimulates benzodiazepine binding

effect on benzodiazepine binding [3]: stimulate the benzodiazepine-binding
EC50 ([3]; active compound (12 mg, k'=8) isolated from CH2 Cl2 extract of G. uralensis by HPLC): 2 to 3 µg/mL
EC50 for stimulation of benzodiazepine-binding ([3]; stimulation of binding): 3 µg/mL
SMILES: COc1cc2c(c(OC)c1CC=C(C)C)CC(c1ccc(O)c(CC=C(C)C)c1O)CO2 (centres unmarked) [3',6-diisopentenyl-2',4'-dihydroxy-5,7-dimethoxyisoflavan]
antagonism of avermectin in the C. elegans motility assay ([1]; in vivo): potent antagonist of avermectin
% active worms ([1]; isoflavan 5 μg/ml, avermectin 0 μg/ml): 97%
% active worms ([1]; isoflavan 5 μg/ml, avermectin 0.156 μg/ml): 60%
% active worms ([1]; isoflavan 5 μg/ml, avermectin 0.313 μg/ml): 60%
% active worms ([1]; isoflavan 5 μg/ml, avermectin 0.625 μg/ml): 77%
% active worms ([1]; isoflavan 25 μg/ml, avermectin 0 μg/ml): 95%
% active worms ([1]; isoflavan 25 μg/ml, avermectin 0.156 μg/ml): 88%
% active worms ([1]; isoflavan 25 μg/ml, avermectin 0.313 μg/ml): 65%
% active worms ([1]; isoflavan 25 μg/ml, avermectin 0.625 μg/ml): 91%
blocking the highest dose of avermectin ([1]; lowest dose level 5 μg/ml, avermectin 0.625 μg/ml): almost fully effective
